Here are results for one compound from patent US20190210973A1, “COMPOUNDS AND METHODS FOR TREATMENT OF CYSTIC FIBROSIS” (The Curators of the University of Missouri, priority 2018, published 2019).

SMILES strings stand for the structures. Values joined by “and” are separate entries in the source; they are usually repeats but may differ in a detail not shown here. Identical values can stand only once. “Also recorded” adds a separate entry of the source.

The target in test [1] is T1, G551D-CFTR (Homo sapiens, UniProt P13569, G551D).
T1 construct: The cDNA constructs of CFTR (G551D and delF508) were co-transfected with peGFP-C3; expressed in transfected cells; host or cells: CHO cells (ATCC), transient co-transfection with pEGFP-C3 (GFP as a separate marker, not fused)
As to conditions: cited from earlier work.

Test [2] has as its target T2, delF508-CFTR (Homo sapiens, UniProt P13569, DEL508-508). Set-up: delF508 stably-transfected C127 cells were cultured in DMEM with 10% FBS in 6-well plates; expressed in transfected cells; host or cells: C127 cells stably expressing delF508-CFTR. As to conditions: Kopeikin et al., J. Cys. Fibro. 2014; cited from earlier work.
Test [3] deals with T2, delF508-CFTR. Nature of the test: Western blot of delF508-CFTR membrane (surface) expression, Band C. The test is classed as cell-based. The arrangement: delF508 stably-transfected C127 cells were cultured in DMEM with 10% FBS in 6-well plates; expressed in transfected cells; host or cells: C127 cells stably expressing delF508-CFTR. As to conditions: for influence on the effect of Lumacaftor (VX-809) on membrane expression of delF508-CFTR (words): added to 3 μM VX-809. The source says:
The amount of CFTR proteins in the cell membrane can be determined with Western blot analysis. Like all membrane proteins in the cell, the CFTR protein is synthesized in the endoplasmic reticulum (ER), translocated to the Golgi apparatus for glycosylation before trafficked to the plasma membrane. Because of the addition of complex sugar molecules to CFTR, the molecular weight of “mature” or post-Golgi CFTR in the plasma membrane is higher than that of newly synthesized proteins in the ER. Thus, in Western blot, it is possible to discern two distinct bands: band C representing high molecular weight, mature CFTR, and band B low molecular weight, immature CFTR. While wild-type proteins are present mostly as band C, Class II disease-associated mutations such as delF508 causes a drastic diminution of band C, resulting in an effective decrease of N in the formula N×Po×i. The effects of the reagents (or CFTR correctors) that enhance band C can thus be quantitatively assessed with the Western blot analysis. By the same token, any interactions between different compounds, with positive or negative impact on band C, can be determined with this assay.
Western blot experiments were carried out in both transient expression system (CHO cells) and a stable cell line (C127 cells). CHO cells, grown in 35 mm dishes, were transfected with delF508-CFTR construct in pcDNA plasmids using X-tremeGENE (Roche). Six hours after transfection, tested compounds were added to the medium. In case of delF508-CFTR-expressing stable C127 cells, compounds were added to the medium at about 30% confluence. In both cases, cells were lysed 18 hours post drug treatment using 1×SDS loading buffer. Cell lysates were sheared by pushed through 18G needles. Whole cell lysate were separated in 4˜20% gradient gels (Bio-Rad Laboratories) and transferred onto nitrocellulose membranes. The membranes were blocked with 5% milk in TBST buffer (20 mM Tris, 137 mM NaCl, 0.1% Tween 20) at 4° C. overnight. The membranes were then probed with anti-CFTR antibody (AB596 from the Cystic Fibrosis Foundation) and anti-vimentin antibody as a control (Santa Cruz Biotechnology) at room temperature for two hours. The membranes were washed with TBST five times and then incubated with anti-mouse IgG, HRP-linked antibody (Cell Signaling Technology) at room temperature for one hour. The membranes were washed three times with TBST and developed with chemiluminescence reagent (Thermo Scientific). The luminescence was detected and quantified by a Molecular Image Chemi Doc (Bio-Rad Laboratories).
For Western blotting experiments, delF508 stably-transfected C127 cells were cultured in DMEM with 10% FBS in 6-well plates. Different tested compounds were added to the culture medium within 24 hours of passage to the desired concentration. Cells were lysed 18 hours post drug treatment using 1×SDS loading buffer. Cell lysates were sheared by pushed through 18G needles. Whole cell lysates were separated in 4-20% gradient gels (Bio-Rad Laboratories) and transferred onto nitrocellulose membranes. The membranes were blocked with 5% milk in TBST buffer (20 mM Tris, 137 mM NaCl, 0.1% Tween 20) at 4° C. overnight. The membranes were then probed with anti-CFTR antibody (AB660 from CFTR foundation) and anti-vimentin antibody as a loading control (Santa Cruz Biotechnology) at room temperature for two hours. The membranes were washed with TBST five times and then incubated with anti-mouse IgG, HRP linked antibody (Cell Signaling Technology) at room temperature for one hour. The membranes were washed three times with TBST and developed with chemiluminescence reagent (Thermo Scientific). The luminescence was detected by a Molecular Image Chemi Doc (Bio-Rad Laboratories). […]
(In general: A western blot detects proteins with antibodies after separation by electrophoresis.)

T2 sequence (P13569 with tags, fused parts or gaps DEL508-508): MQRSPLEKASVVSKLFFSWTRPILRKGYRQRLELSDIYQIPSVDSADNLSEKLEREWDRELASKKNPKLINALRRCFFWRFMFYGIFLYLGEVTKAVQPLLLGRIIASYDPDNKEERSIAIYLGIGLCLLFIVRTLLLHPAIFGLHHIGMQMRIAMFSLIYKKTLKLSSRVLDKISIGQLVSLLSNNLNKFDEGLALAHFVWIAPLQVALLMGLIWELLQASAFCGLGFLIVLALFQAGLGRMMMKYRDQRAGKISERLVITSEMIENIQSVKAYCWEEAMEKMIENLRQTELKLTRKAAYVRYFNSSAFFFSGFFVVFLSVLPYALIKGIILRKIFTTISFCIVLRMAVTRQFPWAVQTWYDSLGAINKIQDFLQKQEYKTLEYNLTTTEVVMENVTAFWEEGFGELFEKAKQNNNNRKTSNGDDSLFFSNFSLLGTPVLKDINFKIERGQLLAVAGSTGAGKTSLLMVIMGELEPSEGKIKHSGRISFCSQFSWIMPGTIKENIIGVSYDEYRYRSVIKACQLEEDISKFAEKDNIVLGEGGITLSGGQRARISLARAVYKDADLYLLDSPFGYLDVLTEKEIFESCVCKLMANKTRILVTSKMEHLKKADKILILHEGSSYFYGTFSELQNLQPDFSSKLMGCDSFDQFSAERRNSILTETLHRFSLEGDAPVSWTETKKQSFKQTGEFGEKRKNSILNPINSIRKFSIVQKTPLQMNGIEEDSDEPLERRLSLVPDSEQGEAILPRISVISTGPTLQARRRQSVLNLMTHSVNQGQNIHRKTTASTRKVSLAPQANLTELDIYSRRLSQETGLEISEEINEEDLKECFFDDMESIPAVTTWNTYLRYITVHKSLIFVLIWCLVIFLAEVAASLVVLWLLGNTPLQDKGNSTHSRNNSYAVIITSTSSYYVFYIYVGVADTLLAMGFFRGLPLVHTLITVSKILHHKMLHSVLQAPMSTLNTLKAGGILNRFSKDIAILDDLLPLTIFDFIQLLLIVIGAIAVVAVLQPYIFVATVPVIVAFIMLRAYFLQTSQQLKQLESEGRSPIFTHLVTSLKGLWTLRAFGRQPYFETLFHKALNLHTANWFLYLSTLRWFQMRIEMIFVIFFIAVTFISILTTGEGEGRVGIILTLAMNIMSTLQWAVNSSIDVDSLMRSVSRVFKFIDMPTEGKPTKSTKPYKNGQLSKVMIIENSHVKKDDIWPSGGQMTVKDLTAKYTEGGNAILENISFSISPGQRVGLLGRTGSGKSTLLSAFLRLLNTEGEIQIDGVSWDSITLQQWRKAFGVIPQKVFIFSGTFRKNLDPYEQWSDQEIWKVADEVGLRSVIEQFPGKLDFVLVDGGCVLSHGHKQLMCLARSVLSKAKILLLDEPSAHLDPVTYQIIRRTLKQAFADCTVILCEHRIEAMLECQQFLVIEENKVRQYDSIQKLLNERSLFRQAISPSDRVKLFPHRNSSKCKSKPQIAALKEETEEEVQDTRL
T1 sequence (P13569 whole entry G551D, the tested form may be a part): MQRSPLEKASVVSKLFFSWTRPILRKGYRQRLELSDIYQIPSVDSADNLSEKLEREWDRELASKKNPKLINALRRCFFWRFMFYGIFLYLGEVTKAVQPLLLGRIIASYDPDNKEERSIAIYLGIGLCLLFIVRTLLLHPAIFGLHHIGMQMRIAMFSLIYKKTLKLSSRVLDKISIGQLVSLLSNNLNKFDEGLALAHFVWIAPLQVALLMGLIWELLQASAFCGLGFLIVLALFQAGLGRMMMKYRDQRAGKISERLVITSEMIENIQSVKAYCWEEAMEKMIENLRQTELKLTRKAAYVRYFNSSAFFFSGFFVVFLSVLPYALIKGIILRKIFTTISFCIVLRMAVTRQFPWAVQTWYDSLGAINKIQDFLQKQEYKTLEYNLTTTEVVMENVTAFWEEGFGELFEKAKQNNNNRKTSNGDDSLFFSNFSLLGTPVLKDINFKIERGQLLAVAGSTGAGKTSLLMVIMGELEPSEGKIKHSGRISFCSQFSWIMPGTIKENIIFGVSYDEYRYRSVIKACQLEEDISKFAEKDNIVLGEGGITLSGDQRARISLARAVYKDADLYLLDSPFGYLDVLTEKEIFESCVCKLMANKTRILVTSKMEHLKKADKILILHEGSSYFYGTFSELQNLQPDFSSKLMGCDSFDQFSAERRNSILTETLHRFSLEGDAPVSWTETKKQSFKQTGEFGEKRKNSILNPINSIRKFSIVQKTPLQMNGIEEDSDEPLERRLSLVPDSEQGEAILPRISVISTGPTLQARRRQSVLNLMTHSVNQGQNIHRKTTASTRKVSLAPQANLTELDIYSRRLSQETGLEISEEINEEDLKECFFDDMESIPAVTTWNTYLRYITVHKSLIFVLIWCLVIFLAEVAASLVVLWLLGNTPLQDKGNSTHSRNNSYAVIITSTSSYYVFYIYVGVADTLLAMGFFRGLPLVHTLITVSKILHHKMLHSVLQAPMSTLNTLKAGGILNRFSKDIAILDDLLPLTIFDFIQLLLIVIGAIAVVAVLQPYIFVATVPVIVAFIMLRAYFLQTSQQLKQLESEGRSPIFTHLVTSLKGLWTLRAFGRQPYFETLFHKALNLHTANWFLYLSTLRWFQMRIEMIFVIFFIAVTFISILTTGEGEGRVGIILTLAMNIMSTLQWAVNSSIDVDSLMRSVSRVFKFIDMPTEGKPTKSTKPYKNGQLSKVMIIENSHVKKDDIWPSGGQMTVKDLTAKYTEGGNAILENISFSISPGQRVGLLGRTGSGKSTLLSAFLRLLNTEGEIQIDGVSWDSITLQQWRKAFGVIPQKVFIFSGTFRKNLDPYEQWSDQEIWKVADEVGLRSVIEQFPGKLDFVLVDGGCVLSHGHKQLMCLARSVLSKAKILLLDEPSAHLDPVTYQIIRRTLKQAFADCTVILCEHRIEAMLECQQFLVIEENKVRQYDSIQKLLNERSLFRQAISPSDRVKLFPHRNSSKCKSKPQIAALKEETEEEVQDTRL

`CC(C)(C)c1cc(C(C)(C)C)c(NC(=O)c2c[nH]c3ccccc3c2=O)cc1O` [VX-770, Ivacaftor, reference compound]: the “increase of the Po of G551D-CFTR” value in test [1] (Jih et al., PNAS 2013) is 8-10 folds. For the same compound, the “function of G551D-CFTR relative to wild-type / normal” value in test [1] (with Ivacaftor, literature) was < 10% and ~10%. Moreover, the “Po of delF508-CFTR in the presence of Ivacaftor” value in test [2] is on record as “above 0.4”. Besides, the “surface expression of delF508-CFTR (Band C, corrected to vimentin, DMSO = 100)” value in test [3] (3 μM VX-809 + 1 μM VX-770, C127 cells, lane 6, one value per experiment series) is 334 ± 81, N = 5 and 182 ± 57, N = 4 and 172 ± 50, N = 4. In addition, the “influence on the effect of Lumacaftor (VX-809) on membrane expression of delF508-CFTR (words)” value was “dampens this effect; also recorded: dampens the effect of VX-809” in test [3] and “diminishes the effect of Lumacaftor” in test [3] (listed as Ivacaftor).
